Source: PMC9800739, “Epigenetic drugs in somatostatin type 2 receptor radionuclide theranostics and radiation transcriptomics in mouse pheochromocytoma models” (Theranostics, 2023)
Where two headings read alike, the source gives them in different places.

Assays:
MTT tumors [1] = assay: Tumor growth of MTT allografts; format: in vivo, mouse; details: PET cohorts; for Vtumor, ET start: day 0 baseline, mean ± SEM; for Vtumor, ET start + 4 d: day 4, mean ± SEM
Protocol: During anesthesia, animals were continuously warmed at 37°C. […] Animals were sacrificed using CO2 inhalation and cervical dislocation. […]
70 1.1 Preparation of epigenetic drugs
71 For in vitro application, VPA was freshly dissolved in cell culture medium and added to the
72 cells at final concentrations between 10‒5 and 10‒2 mol/L. DAC was dissolved in H2O to obtain
73 a 10‒4 mol/L stock solution that was stored at ‒20 °C. For each experiment, aliquots of the DAC
74 stock were thawed and added to the cells at final concentrations between 10‒8 and 10‒5 mol/L.
75 For in vivo application, VPA was dissolved at 0.26 mol/L in Dulbecco’s phosphate-buffered
76 saline. DAC was dissolved at 0.04 mol/L in acetic acid (9.6 mol/L) to obtain a stock solution
77 that was further diluted to 6.6×10‒4 mol/L in Dulbecco’s phosphate buffered. […]
88 1.3 Tumor volumes in animal cohorts
89 Animals with higher initial tumor volume were specifically included in cohorts that received
90 epigenetic drugs in order to compensate for the growth-reducing effects of ET and to match
91 tumor volumes as closely as possible across cohorts at the time of radiopharmaceutical injection

MPC and MTT cells = assay: Viability assay (colorimetric tetrazolium dye); format: cell-based, mouse; details: MPC and MTT cells (similar); three days after treatment start; two treatments at 24 h interval
Protocol: Cells were seeded into collagen-coated microplates or collagen-coated flasks 24 h before epigenetic treatment (ET) start and treated twice (24 h interval) with VPA and DAC, as single and combination doses, respectively. Treatment effects were investigated two to six days (d) after final ET.
Viability of cells seeded into collagen-coated 96-well microplates (6×10^4/cm^2) was measured three days after treatment start using a colorimetric tetrazolium dye assay [39]. Doxorubicin served as positive control.

[2] = test system: MPC and MTT allograft mice; assay: Biodistribution / retention of [64Cu]Cu-DOTA-TATE; format: in vivo, mouse; details: DAC-treated animals; no relationship with SUV changes in tumors
Protocol: Radiotracer was injected as described for PET imaging. Mice were sacrificed 60 min after radiotracer injection, organs were excised and weighted, and activity in tissue samples was measured using the gamma counter Wizard (PerkinElmer, Waltham, MA, USA). Standardized uptake values were determined.
107 (30%), muscle (0%), kidneys (25%), and liver (35%).
116 attenuation. Images were post-processed and analyzed using ROVER (ABX). Three-
118 kidneys (15%), and liver (25%).
119 1.6 Sstr2 promoter methylation analysis
122 Bisulfite Kit (Qiagen, Hilden, Germany). Bisulfite-converted DNA was amplified using a
Amplicon size (195bp) was confirmed
125 Switzerland). Electropherograms were compared to PCR products amplified from bisulfite-
127 an unmethylated 900bp-DNA fragment. The latter was generated by amplification of genomic
129 of primers are provided in (Table S 2).

BON‑1 xenografts = test system: BON‑1 xenografts; design: method as in PMID 27363833; details: after treatment with DAC; cited from earlier work
MTT tumors [3] = details: for increase of average SUVmean of tumors vs control cohort: MTT tumors, VPA 250 mg/kg, DAC 1 mg/kg, single or combination, i.p. twice at 72 h interval, DAC P < 0.05, combination P < 0.01; for SUVmean tumor / SUVmax ratio tumor / muscle / SUVmax tumor / SUVmean ratio tumor / muscle: MTT; for percentage of MTT responders (SUV): n = 7 per cohort, threshold control mean + 2×TE
Protocol: All animal experiments were carried out according to the guidelines of the German Regulations for Animal Welfare and have been approved by the local Ethical Committee for Animal Experiments. A number of 4×10^6 MPC or MTT cells were re-suspended in 40 µL of Dulbecco's phosphate-buffered saline and injected subcutaneously into the shoulder of 10-15 week-old female nude mice (Rj:NMRI-Foxn1^nu/nu, Janvier Labs, Le Genest-Saint-Isle, France). Prior to imaging procedures, general anesthesia was induced and maintained with inhalation of 10% (v/v) desflurane in 30/10% (v/v) oxygen/air. During anesthesia, animals were continuously warmed at 37°C. Tumor growth was monitored three times per week using caliper measurements. Tumor volume was calculated assuming a tri-axial ellipsoid with the axes a, b, and c using the formula V = π/6×abc. Animals were sacrificed using CO2 inhalation and cervical dislocation.
Preparation of epigenetic drugs is described in Supplemental Information 1.1. Animals received VPA (1.7×10^‒3 mol/kg ≈ 250 mg/kg), DAC ([…] ≈ 1 mg/kg), or a combination of both, in Dulbecco's phosphate buffered saline (200 µL/30 g body weight), delivered as two consecutive intraperitoneal injections in a 72 h-interval. Applied doses were within the epigenetically effective dose range in mice, as reported elsewhere, [41]-[43]. The estimated human equivalent doses corresponded to 20‒30% of the clinically applied tumor-suppressive doses in patients, [45]. Animals in control groups received Dulbecco's phosphate buffered saline only. Multiple independent experiments were performed, always including animals of all treatment groups (Table 1).
Small animal positron emission tomography (PET) was performed using the nanoPET/CT scanner (Mediso Medical Imaging Systems, Budapest, Hungary). […] Recording, binning, framing, and image reconstruction were performed as reported previously. Dynamic imaging was performed for 60 min, static imaging between 40‒60 min after radiotracer injection. With each PET scan, a corresponding CT image was recorded and used for anatomical referencing and attenuation correction. […] Standardized uptake values (SUV) were determined and reported as SUVmean (VOI-averaged) and SUVmax (VOI-maximum). Details on quantitative PET image analysis are provided in Supplemental Information 1.4.
106 (VOIs) were created (40‒60 min frames) applying fixed thresholds for delineation of tumor
107 (30%), muscle (0%), kidneys (25%), and liver (35%). […]

SSTR2 = test system: SSTR2; design: method as in PMID 26211366; details: neuroendocrine tumor models; cited from earlier work
[4] = [64Cu]Cu-DOTA-TATE, 40‒60 min p.i., day 1 after final ET, control or VPA 250 mg/kg, DAC 1 mg/kg days −3 and 0, mean ± SEM, DAC P < 0.05, VPA+DAC P < 0.001
[5] = as SUVmean, mean ± SEM, DAC P < 0.05
[6] = as SUVmean, mean ± SEM, VPA+DAC P < 0.01

Compound	Vtumor, ET start (MTT tumors [1]) [cm3]	Vtumor, ET start + 4 d (MTT tumors [1]) [cm3]	LD50 (MPC and MTT cells) [mol/L]	increase of average SUVmean of tumors vs control cohort (MTT tumors [3]) [fold]	SUVmean tumor (MTT tumors [3]; [4])	SUVmax ratio tumor / muscle (MTT tumors [3]; animal 1, 40‒60 min p.i.)	SUVmax tumor (MTT tumors [3]; animal 1, 40‒60 min p.i.)	SUVmean ratio tumor / muscle (MTT tumors [3]; animal 1, 40‒60 min p.i.)	SUVmean tumor (MTT tumors [3]; animal 1, 40‒60 min p.i.)	SUVmax ratio tumor / muscle (MTT tumors [3]; animal 2, 40‒60 min p.i.)	SUVmax tumor (MTT tumors [3]; animal 2, 40‒60 min p.i.)	SUVmean ratio tumor / muscle (MTT tumors [3]; animal 2, 40‒60 min p.i.)	SUVmean tumor (MTT tumors [3]; animal 2, 40‒60 min p.i.)	SUVmax ratio tumor / muscle (MTT tumors [3]; animal 3, 40‒60 min p.i.)	SUVmax tumor (MTT tumors [3]; animal 3, 40‒60 min p.i.)	SUVmean ratio tumor / muscle (MTT tumors [3]; animal 3, 40‒60 min p.i.)	SUVmean tumor (MTT tumors [3]; animal 3, 40‒60 min p.i.)	SUVmax ratio tumor / muscle (MTT tumors [3]; animal 4, 40‒60 min p.i.)	SUVmax tumor (MTT tumors [3]; animal 4, 40‒60 min p.i.)	SUVmean ratio tumor / muscle (MTT tumors [3]; animal 4, 40‒60 min p.i.)	also measured
Nc1ncn([C@H]2C[C@H](O)[C@@H](CO)O2)c(=O)n1 [DAC, 5-Aza-2'-deoxycytidine]	0.23 ± 0.07	0.24 ± 0.06	6.3e-07	1.7	0.88 ± 0.13	4.01	0.83	4.91	0.38	6.62	1.52	7.82	0.65	5.31	1.66	8.27	0.77	11.0	2.00	12.6	activity retention in the liver, effect [2]: significantly higher in DAC-treated animals; increase in [68Ga]Ga-DOTA-TATE uptake (BON‑1 xenografts): approximately 2 fold; SUVmean tumor (MTT tumors [3]; animal 4, 40‒60 min p.i.): 0.80; SUVmax ratio tumor / muscle (MTT tumors [3]; animal 5, 40‒60 min p.i.): 7.68; SUVmax tumor (MTT tumors [3]; animal 5, 40‒60 min p.i.): 1.88; SUVmean ratio tumor / muscle (MTT tumors [3]; animal 5, 40‒60 min p.i.): 11.5; SUVmean tumor (MTT tumors [3]; animal 5, 40‒60 min p.i.): 0.93; SUVmax ratio tumor / muscle (MTT tumors [3]; animal 6, 40‒60 min p.i.): 14.7; SUVmax tumor (MTT tumors [3]; animal 6, 40‒60 min p.i.): 2.71; SUVmean ratio tumor / muscle (MTT tumors [3]; animal 6, 40‒60 min p.i.): 17.9; SUVmean tumor (MTT tumors [3]; animal 6, 40‒60 min p.i.): 1.24; SUVmax ratio tumor / muscle (MTT tumors [3]; animal 7, 40‒60 min p.i.): 18.9; SUVmax tumor (MTT tumors [3]; animal 7, 40‒60 min p.i.): 2.72; SUVmean ratio tumor / muscle (MTT tumors [3]; animal 7, 40‒60 min p.i.): 21.3; SUVmean tumor (MTT tumors [3]; animal 7, 40‒60 min p.i.): 1.37; SUVmax ratio tumor / muscle (MTT tumors [3]; as SUVmean, mean ± SEM): 9.74 ± 2.05; SUVmean ratio tumor / muscle (MTT tumors [3]; [5]): 12.1 ± 2.2; SUVmax tumor (MTT tumors [3]; [6]): 1.90 ± 0.25; percentage of MTT responders (SUV) (MTT tumors [3]): 57%
CCCC(CCC)C(=O)O [VPA, valproic acid]	0.14 ± 0.05	0.35 ± 0.05	0.0013	1.4	0.73 ± 0.08	3.3	0.69	3.20	0.34	4.72	1.41	10.52	0.70	8.25	1.61	7.63	0.71	10.8	1.60	11.4	SSTR2 stimulation (effect) (SSTR2): stimulate SSTR2; SUVmean tumor (MTT tumors [3]; animal 4, 40‒60 min p.i.): 0.73; SUVmax ratio tumor / muscle (MTT tumors [3]; animal 5, 40‒60 min p.i.): 5.31; SUVmax tumor (MTT tumors [3]; animal 5, 40‒60 min p.i.): 1.62; SUVmean ratio tumor / muscle (MTT tumors [3]; animal 5, 40‒60 min p.i.): 7.80; SUVmean tumor (MTT tumors [3]; animal 5, 40‒60 min p.i.): 0.74; SUVmax ratio tumor / muscle (MTT tumors [3]; animal 6, 40‒60 min p.i.): 5.70; SUVmax tumor (MTT tumors [3]; animal 6, 40‒60 min p.i.): 1.73; SUVmean ratio tumor / muscle (MTT tumors [3]; animal 6, 40‒60 min p.i.): 9.73; SUVmean tumor (MTT tumors [3]; animal 6, 40‒60 min p.i.): 0.86; SUVmax ratio tumor / muscle (MTT tumors [3]; animal 7, 40‒60 min p.i.): 6.06; SUVmax tumor (MTT tumors [3]; animal 7, 40‒60 min p.i.): 2.23; SUVmean ratio tumor / muscle (MTT tumors [3]; animal 7, 40‒60 min p.i.): 9.95; SUVmean tumor (MTT tumors [3]; animal 7, 40‒60 min p.i.): 1.06; SUVmax ratio tumor / muscle (MTT tumors [3]; as SUVmean, mean ± SEM): 6.30 ± 0.94; SUVmean ratio tumor / muscle (MTT tumors [3]; [5]): 8.60 ± 1.04; SUVmax tumor (MTT tumors [3]; [6]): 1.55 ± 0.17; percentage of MTT responders (SUV) (MTT tumors [3]): 29%
